Source: BindingDB's records for PubMed 11356907 (Institut De Recherches Servier, 2001)
pKi: −log10 of the molar value.

Tests used:
[1] = target: T1, Amine oxidase [flavin-containing] A (Rattus norvegicus, UniProt P21396)
T1 sequence (P21396 whole entry): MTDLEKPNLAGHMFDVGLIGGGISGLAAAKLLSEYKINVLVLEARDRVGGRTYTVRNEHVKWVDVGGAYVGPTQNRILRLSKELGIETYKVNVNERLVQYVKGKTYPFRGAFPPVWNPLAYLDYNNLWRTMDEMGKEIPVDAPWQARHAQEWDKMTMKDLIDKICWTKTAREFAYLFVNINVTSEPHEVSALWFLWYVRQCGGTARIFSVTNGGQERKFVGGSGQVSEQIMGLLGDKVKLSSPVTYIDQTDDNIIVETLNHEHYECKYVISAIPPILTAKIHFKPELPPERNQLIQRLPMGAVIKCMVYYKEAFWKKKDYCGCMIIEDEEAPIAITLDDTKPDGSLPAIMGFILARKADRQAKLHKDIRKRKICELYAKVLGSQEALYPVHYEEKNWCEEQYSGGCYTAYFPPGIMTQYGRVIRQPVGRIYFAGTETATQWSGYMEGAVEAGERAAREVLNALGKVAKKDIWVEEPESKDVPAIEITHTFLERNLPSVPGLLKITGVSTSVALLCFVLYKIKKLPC

[2] = target: T2, Amine oxidase [flavin-containing] B (Rattus norvegicus, UniProt P19643)
T2 sequence (P19643 whole entry): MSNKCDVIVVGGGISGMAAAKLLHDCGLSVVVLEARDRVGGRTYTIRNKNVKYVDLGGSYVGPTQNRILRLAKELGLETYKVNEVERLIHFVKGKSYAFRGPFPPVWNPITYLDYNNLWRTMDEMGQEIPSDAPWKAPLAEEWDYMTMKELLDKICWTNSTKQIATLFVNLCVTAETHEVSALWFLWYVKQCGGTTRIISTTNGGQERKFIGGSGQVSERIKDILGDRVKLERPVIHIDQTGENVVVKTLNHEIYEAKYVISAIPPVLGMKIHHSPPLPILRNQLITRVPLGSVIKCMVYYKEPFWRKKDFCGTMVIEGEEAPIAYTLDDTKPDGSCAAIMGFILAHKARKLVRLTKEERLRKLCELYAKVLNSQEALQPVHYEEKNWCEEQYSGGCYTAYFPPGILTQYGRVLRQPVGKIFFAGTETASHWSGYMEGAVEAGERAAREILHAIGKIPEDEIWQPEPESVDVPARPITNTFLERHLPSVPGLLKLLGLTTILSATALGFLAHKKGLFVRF

[3] = target: Sodium-dependent noradrenaline transporter (Homo sapiens, UniProt P23975)
D(2) dopamine receptor [4] = target: D(2) dopamine receptor (Rattus norvegicus, UniProt P61169)
[5] = target: Beta-2 adrenergic receptor (Homo sapiens, UniProt P07550)
D(2) dopamine receptor [6] = target: D(2) dopamine receptor (Homo sapiens, UniProt P14416)
[7] = target: T3, Alpha-1A adrenergic receptor (Homo sapiens, UniProt P35348)
T3 sequence (P35348 whole entry): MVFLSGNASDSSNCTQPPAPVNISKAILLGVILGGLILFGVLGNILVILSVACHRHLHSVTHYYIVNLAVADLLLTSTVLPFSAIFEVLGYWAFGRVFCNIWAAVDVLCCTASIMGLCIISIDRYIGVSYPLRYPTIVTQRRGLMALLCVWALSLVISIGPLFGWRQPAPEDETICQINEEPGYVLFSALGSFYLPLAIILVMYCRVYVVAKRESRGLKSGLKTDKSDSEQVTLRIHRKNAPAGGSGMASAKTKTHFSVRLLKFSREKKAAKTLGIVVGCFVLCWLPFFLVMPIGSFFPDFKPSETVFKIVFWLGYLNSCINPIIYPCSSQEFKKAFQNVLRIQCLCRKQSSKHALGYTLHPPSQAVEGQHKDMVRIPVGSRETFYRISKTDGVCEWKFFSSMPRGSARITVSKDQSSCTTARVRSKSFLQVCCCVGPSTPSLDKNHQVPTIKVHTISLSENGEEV

[8] = target: T4, Alpha-2C adrenergic receptor (Homo sapiens, UniProt P18825)
T4 sequence (P18825 whole entry): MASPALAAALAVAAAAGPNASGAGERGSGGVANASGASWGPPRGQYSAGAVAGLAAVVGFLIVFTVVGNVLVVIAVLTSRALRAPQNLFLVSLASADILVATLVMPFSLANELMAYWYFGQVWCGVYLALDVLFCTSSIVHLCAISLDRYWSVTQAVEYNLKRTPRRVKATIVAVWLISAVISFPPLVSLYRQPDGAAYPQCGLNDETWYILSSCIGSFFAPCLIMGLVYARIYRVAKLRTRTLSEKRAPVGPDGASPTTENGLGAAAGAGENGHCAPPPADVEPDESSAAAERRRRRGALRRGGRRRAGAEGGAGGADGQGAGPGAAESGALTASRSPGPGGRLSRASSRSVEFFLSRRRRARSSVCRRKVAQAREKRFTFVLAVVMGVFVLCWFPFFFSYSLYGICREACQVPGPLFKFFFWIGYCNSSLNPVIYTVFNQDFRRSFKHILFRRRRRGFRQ

[9] = target: T5, Alpha-1B adrenergic receptor (Homo sapiens, UniProt P35368)
T5 sequence (P35368 whole entry): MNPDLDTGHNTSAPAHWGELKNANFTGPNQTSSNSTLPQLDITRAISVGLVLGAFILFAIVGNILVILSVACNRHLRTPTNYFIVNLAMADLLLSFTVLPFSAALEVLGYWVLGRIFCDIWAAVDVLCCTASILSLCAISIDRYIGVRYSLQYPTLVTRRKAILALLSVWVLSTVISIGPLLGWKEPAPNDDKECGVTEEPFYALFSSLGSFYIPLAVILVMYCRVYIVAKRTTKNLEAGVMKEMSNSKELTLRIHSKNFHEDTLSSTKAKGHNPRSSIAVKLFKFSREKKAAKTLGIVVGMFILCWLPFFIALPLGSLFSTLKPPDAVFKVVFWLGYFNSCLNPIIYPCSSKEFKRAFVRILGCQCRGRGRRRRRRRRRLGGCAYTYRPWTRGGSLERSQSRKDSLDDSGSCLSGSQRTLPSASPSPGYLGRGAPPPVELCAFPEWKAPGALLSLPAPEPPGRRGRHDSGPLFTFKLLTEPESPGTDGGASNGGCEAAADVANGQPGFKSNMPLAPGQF

[10] = target: T6, Alpha-1D adrenergic receptor (Homo sapiens, UniProt P25100)
T6 sequence (P25100 whole entry): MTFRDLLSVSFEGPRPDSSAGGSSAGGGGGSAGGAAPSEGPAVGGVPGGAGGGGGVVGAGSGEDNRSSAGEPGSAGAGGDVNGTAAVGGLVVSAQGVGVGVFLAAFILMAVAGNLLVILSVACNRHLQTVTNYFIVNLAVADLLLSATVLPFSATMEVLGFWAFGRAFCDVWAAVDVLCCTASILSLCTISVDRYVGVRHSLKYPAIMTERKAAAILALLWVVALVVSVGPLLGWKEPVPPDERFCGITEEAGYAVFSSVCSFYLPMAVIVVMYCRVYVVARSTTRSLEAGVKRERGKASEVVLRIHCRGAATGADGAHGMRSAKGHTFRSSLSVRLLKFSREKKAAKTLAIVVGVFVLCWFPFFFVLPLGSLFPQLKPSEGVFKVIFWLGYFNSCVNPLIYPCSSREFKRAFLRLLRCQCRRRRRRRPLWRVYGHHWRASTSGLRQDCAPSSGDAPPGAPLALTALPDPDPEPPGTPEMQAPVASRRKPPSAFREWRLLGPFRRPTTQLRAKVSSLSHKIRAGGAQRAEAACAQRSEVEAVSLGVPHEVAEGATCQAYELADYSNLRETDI

[11] = target: T7, Alpha-2C adrenergic receptor (Rattus norvegicus, UniProt P22086)
T7 sequence (P22086 whole entry): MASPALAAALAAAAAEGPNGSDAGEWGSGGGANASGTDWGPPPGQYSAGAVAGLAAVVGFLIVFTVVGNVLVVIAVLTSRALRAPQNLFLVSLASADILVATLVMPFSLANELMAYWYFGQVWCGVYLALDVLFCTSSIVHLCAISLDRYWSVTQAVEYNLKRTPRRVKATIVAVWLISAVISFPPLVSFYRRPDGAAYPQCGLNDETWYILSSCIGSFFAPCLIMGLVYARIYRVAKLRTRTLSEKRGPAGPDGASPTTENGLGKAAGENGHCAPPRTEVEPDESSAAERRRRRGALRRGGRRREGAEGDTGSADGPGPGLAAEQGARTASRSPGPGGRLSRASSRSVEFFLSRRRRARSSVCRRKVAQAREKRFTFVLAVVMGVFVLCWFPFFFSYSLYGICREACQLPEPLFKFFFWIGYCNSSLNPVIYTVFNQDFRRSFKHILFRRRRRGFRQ

[12] = target: Norepinephrine transporter (Rattus norvegicus, UniProt Q9JIA2)
[13] = target: T8, Alpha-2A adrenergic receptor (Homo sapiens, UniProt P08913)
T8 sequence (P08913 whole entry): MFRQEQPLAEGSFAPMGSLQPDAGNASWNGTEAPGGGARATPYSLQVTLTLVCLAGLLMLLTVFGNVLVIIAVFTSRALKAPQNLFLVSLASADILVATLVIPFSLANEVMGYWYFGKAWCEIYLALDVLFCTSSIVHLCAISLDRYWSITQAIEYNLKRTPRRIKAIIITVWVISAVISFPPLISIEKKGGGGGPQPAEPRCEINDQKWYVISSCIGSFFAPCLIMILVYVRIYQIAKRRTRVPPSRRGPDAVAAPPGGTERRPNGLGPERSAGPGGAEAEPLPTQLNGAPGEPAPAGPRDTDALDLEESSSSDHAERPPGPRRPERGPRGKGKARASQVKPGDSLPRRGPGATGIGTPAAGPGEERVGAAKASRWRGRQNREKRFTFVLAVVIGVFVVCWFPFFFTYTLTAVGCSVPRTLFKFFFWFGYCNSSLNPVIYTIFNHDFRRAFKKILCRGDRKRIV

Chain of D(2) dopamine receptor (Rattus norvegicus, UniProt P61169) (P61169 whole entry): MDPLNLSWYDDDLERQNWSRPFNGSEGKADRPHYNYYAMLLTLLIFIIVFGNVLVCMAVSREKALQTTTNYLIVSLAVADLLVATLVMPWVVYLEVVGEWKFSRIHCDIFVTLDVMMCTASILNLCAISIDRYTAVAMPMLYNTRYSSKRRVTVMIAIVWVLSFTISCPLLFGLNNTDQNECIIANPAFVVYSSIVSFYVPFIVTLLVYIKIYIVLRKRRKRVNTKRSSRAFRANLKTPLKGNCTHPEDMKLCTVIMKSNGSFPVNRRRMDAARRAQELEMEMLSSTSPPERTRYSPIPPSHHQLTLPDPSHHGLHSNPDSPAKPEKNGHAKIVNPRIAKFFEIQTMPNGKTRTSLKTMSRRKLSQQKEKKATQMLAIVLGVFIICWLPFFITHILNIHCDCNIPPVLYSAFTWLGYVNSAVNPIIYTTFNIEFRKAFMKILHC
Chain of D(2) dopamine receptor (Homo sapiens, UniProt P14416) (P14416 whole entry): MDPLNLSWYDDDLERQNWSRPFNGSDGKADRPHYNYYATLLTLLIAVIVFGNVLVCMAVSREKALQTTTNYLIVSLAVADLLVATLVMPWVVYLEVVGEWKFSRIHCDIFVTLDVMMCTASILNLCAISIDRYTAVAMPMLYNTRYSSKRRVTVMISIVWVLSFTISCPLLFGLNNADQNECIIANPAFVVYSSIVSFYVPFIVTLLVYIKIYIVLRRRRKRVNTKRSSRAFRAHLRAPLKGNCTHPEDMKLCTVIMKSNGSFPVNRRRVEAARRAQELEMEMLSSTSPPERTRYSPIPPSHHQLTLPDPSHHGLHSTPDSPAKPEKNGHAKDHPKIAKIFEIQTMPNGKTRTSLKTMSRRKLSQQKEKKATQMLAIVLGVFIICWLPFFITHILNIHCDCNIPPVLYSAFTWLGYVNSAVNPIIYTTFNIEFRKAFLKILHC
Chain of Sodium-dependent noradrenaline transporter (P23975 whole entry): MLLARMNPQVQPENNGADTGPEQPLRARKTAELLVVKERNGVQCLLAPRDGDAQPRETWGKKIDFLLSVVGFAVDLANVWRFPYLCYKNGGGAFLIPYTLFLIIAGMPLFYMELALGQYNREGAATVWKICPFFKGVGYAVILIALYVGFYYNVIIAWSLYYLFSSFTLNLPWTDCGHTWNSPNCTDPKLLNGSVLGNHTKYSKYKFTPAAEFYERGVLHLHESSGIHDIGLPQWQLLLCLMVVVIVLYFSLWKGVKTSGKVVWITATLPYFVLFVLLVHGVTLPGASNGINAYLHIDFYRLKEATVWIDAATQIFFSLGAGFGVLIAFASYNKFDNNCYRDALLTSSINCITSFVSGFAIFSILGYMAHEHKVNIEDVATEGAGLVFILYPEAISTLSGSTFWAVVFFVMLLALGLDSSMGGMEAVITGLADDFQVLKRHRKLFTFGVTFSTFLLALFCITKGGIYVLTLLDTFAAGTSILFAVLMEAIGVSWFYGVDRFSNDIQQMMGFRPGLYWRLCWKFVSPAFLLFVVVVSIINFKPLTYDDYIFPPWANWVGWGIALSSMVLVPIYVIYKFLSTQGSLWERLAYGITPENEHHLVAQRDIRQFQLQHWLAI
Chain of Beta-2 adrenergic receptor (P07550 whole entry): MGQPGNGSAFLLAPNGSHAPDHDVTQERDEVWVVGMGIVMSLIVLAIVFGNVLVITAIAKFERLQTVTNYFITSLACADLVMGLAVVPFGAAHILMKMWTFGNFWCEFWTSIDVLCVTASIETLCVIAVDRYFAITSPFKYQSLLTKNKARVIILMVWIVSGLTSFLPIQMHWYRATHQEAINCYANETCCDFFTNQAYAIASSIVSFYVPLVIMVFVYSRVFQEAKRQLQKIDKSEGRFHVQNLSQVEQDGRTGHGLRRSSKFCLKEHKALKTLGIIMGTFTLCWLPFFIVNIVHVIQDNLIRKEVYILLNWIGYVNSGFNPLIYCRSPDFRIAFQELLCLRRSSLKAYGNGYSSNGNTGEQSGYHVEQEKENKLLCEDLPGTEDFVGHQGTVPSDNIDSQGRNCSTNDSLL

With `c1cnc(N2CCN(Cc3ccc4c(c3)OCO4)CC2)nc1` [NSC_4850] the pKi [1] was under 5.00, the pKi [2] was under 5.00 and the pKi [3] was under 5.00. For the same molecule, the pKi (D(2) dopamine receptor [4]) was 6.74, the pKi [5] was under 5.00 and the pKi (D(2) dopamine receptor [6]) was 6.88. It also gave a pKi [7] of 6.09, a pKi [8] of 7.16 and a pKi [9] of 5.21. For the same molecule, the pKi [10] was 6.66, the pKi [11] was 6.36 and the pKi [12] was under 5.00. The pKi [13] was 7.05.
